From patent US10633353B2, “Polymerizable compound, composition, polymer, optically anisotropic body, liquid crystal display element, and organic EL display” (DIC Corporation, priority 2014, dated 2020)

Assay: Preservation stability of the coating liquid
Type: physicochemical
Protocol: The preservation stability of the coating liquid was evaluated on a scale of A to E on the basis of the state of the coating liquid that was stored for 2 months under a condition where the coating liquid was shielded from light at 0° C.
A: No visual change in the appearance of the coating liquid was confirmed. A GPC analysis of the coating liquid confirmed that the change in the composition of the coating liquid was 1% or less.
B: No visual change in the appearance of the coating liquid was confirmed. A GPC analysis of the coating liquid confirmed that the change in the composition of the coating liquid was 2% or less.
C: A visual change in the appearance of the coating liquid was confirmed; a trace amount of insoluble components were confirmed, or a GPC analysis of the coating liquid confirmed that the change in the composition of the coating liquid was 3% or less.
D: A visual change in the appearance of the coating liquid was confirmed; insoluble components were confirmed. The ratio of the weight of the insoluble components to the total solid content was 5% or less.
E: A large amount of insoluble components were visually confirmed. The ratio of the weight of the insoluble components to the total solid content was 5% or more.

[1] = coating liquid stored for 2 months shielded from light at 0° C., appearance and GPC

Structure (SMILES) | Preservation stability [1] | Preservation stability (summary in words)
C=CC(=O)OCCCOc1ccc(CCC(=O)Oc2ccc(OC(=O)CCc3ccc(OCCCOC(=O)C=C)cc3)c(/C=N/Nc3nc4ccccc4s3)c2)cc1 [1-c-49] | A (No visual change in the appearance of the coating liquid was confirmed. A GPC analysis of the coating liquid confirmed that the change in the composition of the coating liquid was 1% or less.) | 
C=CC(=O)OCCCCCOc1ccc(C(=O)OCCc2ccc(OC(=O)c3ccc(OCCCCCOC(=O)C=C)cc3)c(/C=N/Nc3nc4ccccc4s3)c2)cc1 [1-c-4] | A (No visual change in the appearance of the coating liquid was confirmed. A GPC analysis of the coating liquid confirmed that the change in the composition of the coating liquid was 1% or less.) | 
C=CC(=O)OCCCCOC(=O)C1CCC(C(=O)OC2CCC(C(=O)Oc3ccc(OC(=O)C4CCC(OC(=O)C5CCC(C(=O)OCCCCOC(=O)C=C)CC5)CC4)c(/C=N/N(CCC)c4nc5ccccc5s4)c3)CC2)CC1 (stereo not drawn) [1-f-101] | A (No visual change in the appearance of the coating liquid was confirmed. A GPC analysis of the coating liquid confirmed that the change in the composition of the coating liquid was 1% or less.) | 
C=CC(=O)OCCCCOC(=O)C1CCC(C(=O)OC2CCC(C(=O)Oc3ccc(OC(=O)C4CCC(OC(=O)C5CCC(C(=O)OCCCCOC(=O)C=C)CC5)CC4)c(/C=N/Nc4nc5ccc6ccccc6c5s4)c3)CC2)CC1 (stereo not drawn) [1-f-22] | A (No visual change in the appearance of the coating liquid was confirmed. A GPC analysis of the coating liquid confirmed that the change in the composition of the coating liquid was 1% or less.) | 
C=CC(=O)OCCCCCCOc1ccc(OC(=O)C2CCC(COc3ccc(OCC4CCC(C(=O)Oc5ccc(OCCCCCCOC(=O)C=C)cc5)CC4)c(/C=N/N(CCOCCOCCOC(=O)C=C)c4nc5ccccc5s4)c3)CC2)cc1 (stereo not drawn) [1-cmn-94] | A (No visual change in the appearance of the coating liquid was confirmed. A GPC analysis of the coating liquid confirmed that the change in the composition of the coating liquid was 1% or less.) | 
C=CC(=O)OCCCCOC(=O)/C=C/c1ccc(CCC(=O)Oc2ccc(OC(=O)CCc3ccc(/C=C/C(=O)OCCCCOC(=O)C=C)cc3)c(/C=N/Nc3nc4ccccc4s3)c2)cc1 [1-cj-59] | A (No visual change in the appearance of the coating liquid was confirmed. A GPC analysis of the coating liquid confirmed that the change in the composition of the coating liquid was 1% or less.) | 
C=CC(=O)OCCOCCOCCOc1ccc(OC(=O)C2CCC(COc3ccc(OCC4CCC(C(=O)Oc5ccc(OCCOCCOCCOC(=O)C=C)cc5)CC4)c(/C=N/Nc4nc5ccccc5s4)c3)CC2)cc1 (stereo not drawn) [1-cm-105] | A (No visual change in the appearance of the coating liquid was confirmed. A GPC analysis of the coating liquid confirmed that the change in the composition of the coating liquid was 1% or less.) | 
C=CC(=O)Oc1ccc(C(=O)OCCc2ccc(CCOC(=O)c3ccc(OC(=O)C=C)cc3)c(/C=N/Nc3nc4ccccc4s3)c2)cc1 [1-cg-37] | B (No visual change in the appearance of the coating liquid was confirmed. A GPC analysis of the coating liquid confirmed that the change in the composition of the coating liquid was 2% or less.) | 
C=CC(=O)OCCCOc1ccc(C(=O)OCCc2ccc(OC(=O)c3ccc(OCCCOC(=O)C=C)cc3)c(/C=N/Nc3nc4cc([N+](=O)[O-])ccc4s3)c2)cc1 [1-c-23] | B (No visual change in the appearance of the coating liquid was confirmed. A GPC analysis of the coating liquid confirmed that the change in the composition of the coating liquid was 2% or less.) | 
C=CC(=O)OCCCCCCOc1ccc(C(=O)OCCc2ccc(OC(=O)c3ccc(OCCCCCCOC(=O)C=C)cc3)c(/C=N/Nc3ccc(C#Cc4ccccc4)cc3)c2)cc1 [1-c-31] | B (No visual change in the appearance of the coating liquid was confirmed. A GPC analysis of the coating liquid confirmed that the change in the composition of the coating liquid was 2% or less.) | 
C=CC(=O)OCCCOc1ccc(C(=O)Oc2ccc(OCCCOC(=O)C=C)cc2/C=N/Nc2nc3ccccc3s2)cc1 [1-e-69] | A (No visual change in the appearance of the coating liquid was confirmed. A GPC analysis of the coating liquid confirmed that the change in the composition of the coating liquid was 1% or less.) | 
C=CC(=O)Oc1ccc(C(=O)OCCc2ccc(OC(=O)c3ccc(OC(=O)C=C)cc3)c(/C=N/Nc3nc4ccccc4s3)c2)cc1 [1-cg-36] | B (No visual change in the appearance of the coating liquid was confirmed. A GPC analysis of the coating liquid confirmed that the change in the composition of the coating liquid was 2% or less.) | 
C=CC(=O)OCCCCCCOc1ccc(C(=O)OCCc2ccc(OC(=O)c3ccc(OCCCCCCOC(=O)C=C)cc3)c(/C=N/Nc3nc4cc([N+](=O)[O-])ccc4s3)c2)cc1 [1-c-30] | B (No visual change in the appearance of the coating liquid was confirmed. A GPC analysis of the coating liquid confirmed that the change in the composition of the coating liquid was 2% or less.) | 
C=CC(=O)OCCCCOc1ccc(/C=C/C(=O)Oc2ccc(OC(=O)/C=C/c3ccc(OCCCCOC(=O)C=C)cc3)c(/C=N/Nc3nc4ccccc4s3)c2)cc1 [1-c-45] | B (No visual change in the appearance of the coating liquid was confirmed. A GPC analysis of the coating liquid confirmed that the change in the composition of the coating liquid was 2% or less.) | 
C=C(C)C(=O)OCCCCCOc1ccc(C(=O)OCCc2ccc(OC(=O)c3ccc(OCCCCCOC(=O)C(=C)C)cc3)c(/C=N/Nc3nc4ccccc4s3)c2)cc1 [1-c-7] | A (No visual change in the appearance of the coating liquid was confirmed. A GPC analysis of the coating liquid confirmed that the change in the composition of the coating liquid was 1% or less.) | 
C=CC(=O)OCCCOc1ccc(CCC(=O)Oc2ccc(OC(=O)CCc3ccc(OCCCOC(=O)C=C)c(OC)c3)c(/C=N/Nc3nc4ccccc4s3)c2)cc1OC [1-c-52] | A (No visual change in the appearance of the coating liquid was confirmed. A GPC analysis of the coating liquid confirmed that the change in the composition of the coating liquid was 1% or less.) | 
C=CC(=O)OCCCCCCOc1ccc(OC(=O)C2CCC(C(=O)OCCc3ccc(OC(=O)C4CCC(C(=O)Oc5ccc(OCCCCCCOC(=O)C=C)cc5)CC4)c(/C=N/Nc4cccc5ccccc45)c3)CC2)cc1 (stereo not drawn) [1-c-42] | B (No visual change in the appearance of the coating liquid was confirmed. A GPC analysis of the coating liquid confirmed that the change in the composition of the coating liquid was 2% or less.) | 
C=CC(=O)OCCCCCCOC1CCC(C(=O)Oc2ccc(OC(=O)C3CCC(OCCCCCCOC(=O)C=C)CC3)c(/C=N/Nc3nc4ccccc4s3)c2)CC1 (stereo not drawn) [1-f-19] | A (No visual change in the appearance of the coating liquid was confirmed. A GPC analysis of the coating liquid confirmed that the change in the composition of the coating liquid was 1% or less.) | 
C=CC(=O)OCCCCCCOc1ccc(C(=O)Oc2ccc(-c3ccc(OC(=O)c4ccc(OCCCCCCOC(=O)C=C)cc4)cc3C=NN=C3c4ccccc4-c4ccccc43)cc2)cc1 [1-hk-86] | A (No visual change in the appearance of the coating liquid was confirmed. A GPC analysis of the coating liquid confirmed that the change in the composition of the coating liquid was 1% or less.) | high
C=CC(=O)OCCCCCCOc1ccc(C(=O)OCCc2ccc(OC(=O)c3ccc(OCCCCCCOC(=O)C=C)cc3)c(/C=N/Nc3nc4ccccc4s3)c2)cc1 [1-c-1] | A (No visual change in the appearance of the coating liquid was confirmed. A GPC analysis of the coating liquid confirmed that the change in the composition of the coating liquid was 1% or less.) | 
C=CC(=O)OCCCCCCOc1ccc(C(=O)OCCc2ccc(OC(=O)c3ccc(OCCCCCCOC(=O)C=C)cc3)c(/C=N/Nc3nc4ccc5ccccc5c4s3)c2)cc1 [1-c-33] | B (No visual change in the appearance of the coating liquid was confirmed. A GPC analysis of the coating liquid confirmed that the change in the composition of the coating liquid was 2% or less.) | 
C=CC(=O)OCCCCOc1ccc(OC(=O)C2CCC(C(=O)OCCc3ccc(OC(=O)C4CCC(C(=O)Oc5ccc(OCCCCOC(=O)C=C)cc5)CC4)c(C=NNc4nc5ccccc5s4)c3)CC2)cc1 (stereo not drawn) [1-c-14] | A (No visual change in the appearance of the coating liquid was confirmed. A GPC analysis of the coating liquid confirmed that the change in the composition of the coating liquid was 1% or less.) | 
C=CC(=O)OCCCCCCOc1ccc(C(=O)OCCc2ccc(OC(=O)c3ccc(OCCCCCCOC(=O)C=C)cc3)c(/C=N/Nc3ccc4ccccc4c3)c2)cc1 [1-c-32] | B (No visual change in the appearance of the coating liquid was confirmed. A GPC analysis of the coating liquid confirmed that the change in the composition of the coating liquid was 2% or less.) | 
C=CC(=O)OCCCOc1ccc(C(=O)OCCc2ccc(OC(=O)c3ccc(OCCCOC(=O)C=C)cc3)c(/C=N/Nc3nc4ccccc4s3)c2)cc1 [1-c-2] | A (No visual change in the appearance of the coating liquid was confirmed. A GPC analysis of the coating liquid confirmed that the change in the composition of the coating liquid was 1% or less.) | 
C=CC(=O)OCCCCCCOc1ccc(C#Cc2ccc(C#Cc3ccc(OCCCCCCOC(=O)C=C)cc3)c(/C=N/Nc3nc4ccccc4s3)c2)cc1 [1-c-68] | B (No visual change in the appearance of the coating liquid was confirmed. A GPC analysis of the coating liquid confirmed that the change in the composition of the coating liquid was 2% or less.) | 
C=CC(=O)OCCCCOC(=O)C1CCC(C(=O)OC2CCC(C(=O)Oc3ccc(OC(=O)C4CCC(OC(=O)C5CCC(C(=O)OCCCCOC(=O)C=C)CC5)CC4)c(/C=N/N(C)c4nc5ccccc5s4)c3)CC2)CC1 (stereo not drawn) [1-f-103] | A (No visual change in the appearance of the coating liquid was confirmed. A GPC analysis of the coating liquid confirmed that the change in the composition of the coating liquid was 1% or less.) | 
